Reference: patent US20260137671A1, “PDK4 as a Cell-Aging Intervention Target and Its Use in Chemotherapy and Anticancer” (Shanghai Institute of Nutrition and Health, Chinese Academy …, priority 2022, published 2026)

Columns and labels:
[1] = system: mice aged 24 to 27 months; experiment: Lifespan appraisal of late-life mice; format: in vivo, C57BL/6 mice; details: PDK4-IN every two weeks, P<0.001 vs Vehicle
Method: FIG. 91. Schematic design for lifespan appraisal of mice. Mice aged 24 to 27 months were administered either Vehicle or PDK4-IN every two weeks, with continuous monitoring of their survival and recording of maximum lifespan.
C57BL/6 mice aged 24 to 27 months were administered either Vehicle or PDK4-IN every two weeks intraperitoneally. The median survival of animals in each group was calculated and indicated. ***, P<0.001.
The earliest deaths occurred approximately 2 months after the last physical function test. C57BL/6 mice aged 19 to 21 months were housed at 3-5 animals per cage. Same as the transplanted mice, the mice were sorted by body weight and randomly assigned to each group, and treated in either control (vehicle) or drug (PDK4) group by persons blinded to the design of the preclinical trial. From the age of 24-27 months, the mice were treated with vehicle or PDK4-IN every 2 weeks, […] for 3 consecutive days at each time. During the course of the study, some mice were removed from their original cages in order to minimize the animal housing stress caused by long-term housing in a single cage. RotaRod and hanging tests were performed monthly because these tests were sensitive and noninvasive. […] During the experiment, no mice were excluded due to fighting, accidental death or dermatitis. For biostatistics, a Cox proportional hazard model was used for survival analysis. […]

[2] = system: cancer cells in tumors (PC3/PSC27 xenografts); experiment: DNA damage and apoptosis in tumors by IHC (γ-H2AX, cleaved caspase 3); format: in vivo, SCID mice; details: for DNA damage and apoptosis in cancer cells: tumors dissected 7 days after initiation of treatment
From the text: FIG. 69. Statistical evaluating values of DNA-damaged cells and apoptotic cells in analyzed tumor specimens, represented as a percentage of cells positively stained by IHC with antibodies against γ-H2AX or caspase 3 (cleaved).
FIG. 70. Representative IHC images of caspase 3 (cleaved) in tumors at the end of therapeutic regimens. Biopsies of placebo-treated animals served as negative controls for drug-treated mice. Scale bar, 100 μm.
Considering the primary in vivo expressive results with MIT and/or PDK4-IN treatment, the inventors next asked how pharmacologically targeting PDK4 could enhance the therapeutic response of tumors. To disclose the possible mechanism(s), the inventors chose to dissect tumors from animals 7 days after initiation of treatment, a timepoint right before the development of resistant colonies.

[3] = system: mice with natural senescence; experiment: PDK4-IN intervention in naturally aged mice: tissue senescence, physical function, serum markers; format: in vivo, C57BL/6J mice
Method: FIG. 83. Schematic design of 20-month-old C57BL/6J mice undergoing either placebo or PDK4-IN intervention.
All testing began on day 5 after the last placebo or drug treatment. Maximum walking speed was assessed using the accelerated RotaRod System (TSE System, Chesterfiled, MO). The mice were trained on the RotaRod for 3 days at speeds of 4, 6 and 8 r.p.m, lasted for 200 seconds on the 1st, 2nd and 3rd days. On the test day, the mice were placed on the RotaRod, and the test was performed starting at a speed of 4 r.p.m. The rotation speed was accelerated from 4 to 40 r.p.m at intervals of 5 minutes. When the mice fell off the RotaRod, the speed was recorded. The final results were averaged from 3 or 4 trials and normalized to baseline speed. The mice that had been trained within the previous two months were no longer trained.
Forelimb grip strength (N) was measured using a Grip Strength Meter (Columbus Instruments, Columbus, OH), and the results were averaged from more than 10 trials. For the hanging endurance test, the mice were placed on a 2 mm thick metal wire, while the later was 35 cm above a mat. The mice were only allowed to grasp the wire with their forelimbs, and the hang time was normalized to body weight and expressed as hang duration (sec)×body weight (g). The results were the average of 2 to 3 trials per mouse. Their daily activity and food intake were monitored for 24 h (12 hours of light and 12 hours of dark) by a Comprehensive Laboratory Animal Monitoring System (CLAMS). The CLAMS system was equipped with an Oxymax Open Circuit Calorimeter System (Columbus Instruments). For treadmill performance, the mice were acclimatized to run on an electric running machine (Columbus Instruments) at a 5° incline, for 3 days of training, lasted for 5 minutes each day, started at a speed of 5 m/min for 2 minutes, then accelerated to 7 m/min for 2 minutes, then 9 m/min for 1 minute. On the day of the test, the mice ran on the treadmill at an initial speed of 5 m/min for 2 min, and then the speed increased by 2 m/min every 2 min until the mice were exhausted. Fatigue was defined as the inability of mice to return to the treadmill despite mild electrical and mechanical stimulation. The distance was recorded after the test, and the total work (KJ) was calculated with the following formula: mass (kg)×g (9.8 m/s2)×distance (m)×sin (5°).
With the increasing global senescent trend in recent years, drugs that can effectively alleviate the senescent process have become a common interest among scientists and pharmaceutical companies worldwide. The inventors queried whether manipulation of PDK4 activities can control various senescence-associated phenotypes. Therefore, the inventors chose to treat normal 20-month-old wild-type mice with PDK4-IN (PDK4-IN 10 mg/kg via intraperitoneal injection once every 2 weeks) for 4 months, after which physical function or physical ability was experimentally determined in mice with natural senescence (FIG. 83).

[4] = 20-month-old mice, PDK4-IN 10 mg/kg i.p. once every 2 weeks for 4 months

For `O=C1c2ccccc2C(=O)c2c1cccc2-c1cnn(C2CCNCC2)c1` [PDK4-IN], the “lifespan during the intervention period” value [1] was “significantly extended the lifespan”, the “caspase 3 cleavage (IHC)” value ([2]; PDK4-IN added to MIT) was “further enhanced” and the “DNA damage and apoptosis in cancer cells” value ([2]; PDK4-IN upon combination with MIT) was “prominent efficacy in enhancing these therapeutic indices”. For the same molecule, the “DNA damage and apoptosis in cancer cells” value ([2]; single agent) was “neither caused typical DDR nor induced cell apoptosis”, the “SA-β-gal positivity in liver, lung, prostate and myocardial tissues of aged animals” value [3, 4] was “partially reversed” and the “age-dependent expansion of alveoli” value [3, 4] was “effectively controlled”. For the same molecule, the grip strength [3, 4] was “significantly improved”, the motor skills [3, 4] was “significantly improved” and the serum lactate levels ([3]; aged animals receiving PDK4-IN treatment) was “significant reduction”. The “age-related elevation of serum alanine aminotransferase (ALT)” value ([3]; aged mice treated with PDK4-IN) was “significantly avoided these changes”, the “age-related elevation of serum aspartate aminotransferase (AST)” value ([3]; aged mice treated with PDK4-IN) was “significantly avoided these changes” and the “age-related elevation of serum lactate dehydrogenase (LDH)” value ([3]; aged mice treated with PDK4-IN) was “significantly avoided these changes”. For the same molecule, the body weight ([3]; aged mice treated with PDK4-IN) was “essentially unaffected” and the food intake ([3]; aged mice treated with PDK4-IN) was “essentially unaffected”.
